Test results from publication PMC12470260, “Functional Divergence of Two General Odorant-Binding Proteins to Sex Pheromones and Host Plant Volatiles in Adoxophyes orana (Lepidoptera: Tortricidae)” (Insects, 2025).
“And” between values parts separate entries of the source, which are not always exact repeats. Equal values may be shown once.

Experiments:
AoraGOBP1 = test: Fluorescence competitive binding assay (1-NPN probe) with rAoraGOBP1; parameters: species or system Adoxophyes orana; conditions: for Ki: competitive displacement of 1-NPN, 20 mM Tris-HCl pH 7.4, mean ± S.E.M., read-out: Ki (μM) GOBP1; for Binding affinity to AoraGOBP1 (in words): fluorescence competitive binding
Experimental: (§1) The fluorescent competitive binding assays were conducted using an F-2700 spectrophotofluorometer (Hitachi, Tokyo, Japan) to evaluate the binding affinities of AoraGOBP1 and AoraGOBP2 to sex pheromones, and HPVs. […] With the increase of 1 − NPN concentration, the change in fluorescence intensity decreased and eventually stabilized, and the data were recorded. Binding dissociation constant K1−NPN (Kd) of 1 − NPN to rAoraGOBPs were determined. Then, 2 mL protein solution containing 2 μM rAoraGOBPs was titrated with 1 μM of each ligand to a final concentration of 18 µM. The fluorescence intensity was measured and recorded after a 2 min reaction. The Ki for competitive binding of each ligand to rAoraGOBPs using the formula Ki = [IC50]/(1 + [1 − NPN]/K1−NPN), where IC50 is the ligand concentration corresponding to 50% displacement of 1 − NPN. Each assay was replicated three times biologically. The Kd and Ki are presented as mean ± S.E.M.

AoraGOBP2 = test: Fluorescence competitive binding assay (1-NPN probe) with rAoraGOBP2; parameters: species or system Adoxophyes orana; conditions: for Ki: competitive displacement of 1-NPN, 20 mM Tris-HCl pH 7.4, mean ± S.E.M., read-out: Ki (μM) GOBP2
Experimental: as §1

[1] = fluorescent probe titration, 2 μM protein, pH 7.4

Compound | Ki (AoraGOBP1; 2 μM protein) | Ki (AoraGOBP2; 2 μM protein) | other results
CC(C)=CCCC(C)=CC=O (mixture of isomers) [Citral] | 11.7 ± 0.44 µM | – | –
c1ccc(Nc2cccc3ccccc23)cc1 [1 − NPN, reference compound] | – | – | Kd (AoraGOBP1; [1]): 18.4 µM; Kd (AoraGOBP2; [1]): 1.65 µM
C=CC(O)CC (stereo not shown) [1-Penten-3-ol] | 10.2 ± 0.14 µM | – | –
CCCCCCCCCCCCO [12:OH] | – | 1.74 ± 0.03 µM | –
CC/C=C\CCOC(=O)CC(C)C [(Z)-3-Hexen-1-yl 3-methylbutanoate] | 6.21 ± 0.18 µM | – | –
CCCCCCCCCC=O [Decanal] | 0.78 ± 0.15 µM | – | –
CCCCOC(=O)c1ccccc1C(=O)OCCCC [Dibutyl phthalate] | 10.27 ± 0.07 µM | 5.33 ± 0.04 µM | –
CCOC(=O)C(C)CC (stereo not shown) [Ethyl 2-methylbutanoate] | 11.78 ± 0.08 µM | – | –
CC(C)=CCC/C(C)=C/CC/C(C)=C/CO [Farnesol] | – | 1.13 ± 0.02 µM | –
CC(C)C=O [Isobutyraldehyde] | 11.9 ± 0.41 µM | – | –
COC(=O)c1ccccc1O [Methyl salicylate] | 4.41 ± 0.2 µM | – | –
CCCCC/C=C\C=C\C(=O)OCC [Pear ester] | 5.08 ± 0.13 µM | – | –
CCCC/C=C\CCCCCCCCOC(C)=O [Z9-14:Ac, (Z)-9-tetradecenyl acetate] | – | 6.46 ± 0.18 µM | Binding affinity to AoraGOBP1 (in words) (AoraGOBP1): did not; Binding affinity to AoraGOBP2 (in words) (AoraGOBP2; fluorescence competitive binding): moderate binding affinity
CCCC/C=C\CCCCCCCCO [Z9-14:OH, (Z)-9-tetradecen-1-ol] | – | 1.49 ± 0.01 µM | Binding affinity to AoraGOBP1 (in words) (AoraGOBP1): did not
CCCC/C=C\CCCCCCCCO [Z11-14:OH, (Z)-9-tetradecen-1-ol] | – | 1.21 µM and 1.24 µM | Binding affinity to AoraGOBP1 (in words) (AoraGOBP1): did not
Farnesene | – | 6.96 ± 0.32 µM | –
